Values after ≈ are worked out from the molar mass of the structure shown.
Legend:
Assay type in all cases: physicochemical
[1] = Solid state stability of droxidopa with pH modifiers under accelerated conditions 70° C./75% RH
Description: Droxidopa is stable in acidic solution, but degrades in neutral or alkaline conditions. […] When citric acid was present with the drug in solid state, e.g. powder or uncoated granules, droxidopa became unstable under accelerated conditions 70° C./75% RH. When these droxidopa granules/pellets were coated with a protective layer, and blended with citric acid, the drug degradation was reduced. Furthermore, a pH modifier monosodium citrate was used instead of citric acid and blended with droxidopa granules. Droxidopa was stable for 7 days under accelerated conditions 70° C./75% RH. […] Thus, salt based pH modifiers can be used to improve the stability of the droxidopa.

[2] = Droxidopa solubility at room temperature at different pH
[3] = Stability of saturated droxidopa solutions at room temperature (UPLC); details: for Stability of saturated droxidopa in solution: room temperature over 24 days; for Total degradation, 7 day Exposure / Total degradation, 24 day Exposure: saturated solution
Description: Saturated solutions of droxidopa were prepared in 3 diluents at different pH and stored at room temperature for up to 24 days in sealed containers. All solutions were prepared with an excess of droxidopa by combining 10 mg droxidopa per ml of diluent. Exposed samples were filtered and degradation as a percent of initial droxidopa amount was determined by ultra-performance liquid chromatography (UPLC) on a Waters ACQUITY UPLC with a photodiode array (PDA) detector using a Waters ACQUITY HSS PFP 1.8 μm 2.1×100 mm column. Run conditions for the analyses were as follows: • Mobile phase A: 50 mM ammonium formate pH 3.0 • Mobile phase B: Acetonitrile • Detection wavelength: 279 nm • Flow: 0.5 ml/min • Column temperature: 30 C • Injection volume: 1 μl • Gradient (linear transitions) are shown in Table 12B: […]

[4] = Stability of droxidopa dissolved in diluents of different pH (0.5 mg/ml, room temperature, UPLC); details: for Total degradation, 24-hour Exposure / Total degradation, 48-hour Exposure: room temperature, 0.5 mg/ml
Description: Droxidopa was dissolved in 5 diluents at different pH and stored at room temperature for 24 or 48 hours in sealed glass containers. All solutions were prepared at a nominal concentration of 0.5 mg/ml. Percent degradation was determined by ultra-performance liquid chromatography (UPLC) on a Waters ACQUITY UPLC with a photodiode array (PDA) detector using a Waters ACQUITY BEH C18 1.7 um 2.1×50 mm column. Run conditions for the analyses were as follows: • Mobile phase A: 50 mM sodium phosphate pH 3.0 • Mobile phase B: Acetonitrile • Detection wavelength: 279 nm • Flow: 0.5 ml/min • Column temperature: 30 C • Injection volume: 2 μl • Gradient (linear transitions) are shown in Table 12A: Identification of the known components droxidopa and dihydroxybenzaldehyde was confirmed through retention time and spectral match against pure materials of known identity. Degradation results were quantified as a percent area of degradation peaks versus total area of all degradation/droxidopa peaks. Results for pH 10.0 and pH 12.0 samples were estimated at >90% due to a significant number of peaks present near the retention time of droxidopa.

[5] = 16 mmol citric acid, room temperature
[6] = 16 mmol disodium citrate combined with 16 mmol citric acid to achieve pH 4.0, room temperature
[7] = pH 3, 50 mM NaH2PO4 adjusted to pH 3.0 with Phosphoric acid
[8] = pH 7, 50 mM NaH2PO4 adjusted to pH 7.0 with 1N Sodium hydroxide

## N[C@H](C(=O)O)[C@H](O)c1ccc(O)c(O)c1 [droxidopa, (−)-threo-3-(3,4-Dihydroxyphenyl)-L-serine]
[1]; citric acid present with the drug in solid state (powder or uncoated granules)
  Solid state stability: unstable
[1]; droxidopa granules blended with monosodium citrate, 7 days
  Solid state stability: stable
[1]; granules/pellets coated with a protective layer and blended with citric acid
  Drug degradation in solid state: reduced
[2]; solution of pH 1.2 (composition not stated), pH 1.2, simulated gastric fluid
  solubility: 15500 µg/mL (≈ 72.7 mM)
[2]; solution of pH 3.0 (composition not stated), pH 3, aqueous buffer
  solubility: 2620 µg/mL (≈ 12.3 mM)
[2]; solution of pH 4.5 (composition not stated), pH 4.5, aqueous buffer
  solubility: 2350 µg/mL (≈ 11 mM)
[2]; solution of pH 5.5 (composition not stated), pH 5.5, aqueous buffer
  solubility: 2300 µg/mL (≈ 10.8 mM)
[2]; solution of pH 6.8 (composition not stated), pH 6.8, aqueous buffer
  solubility: 2470 µg/mL (≈ 11.6 mM)
[3]; citrate buffer (pH 4.0)
  Stability of saturated droxidopa in solution: stable
[3]; citric acid solution (pH 2.5)
  Stability of saturated droxidopa in solution: stable
[3]; [5]
  Total degradation, 7 day Exposure: 0.0%
  Total degradation, 24 day Exposure: 0.1%
[3]; [6]
  Total degradation, 7 day Exposure: 0.0%
  Total degradation, 24 day Exposure: 0.1%
[3]; Deionized water, room temperature
  Total degradation, 7 day Exposure: 0.1%
[4]; acidic solution
  Stability in solution: stable
[4]; neutral or alkaline conditions
  Stability in solution: degrades
[4]; pH 1.2, 0.1N HCl
  Total degradation, 24-hour Exposure: <0.05%
  Total degradation, 48-hour Exposure: <0.05%
[4]; [7]
  Total degradation, 24-hour Exposure: <0.05%
  Total degradation, 48-hour Exposure: <0.05%
[4]; [8]
  Total degradation, 24-hour Exposure: 0.39%
  Total degradation, 48-hour Exposure: 1.23%
[4]; pH 10, 25 mM HCO2NH4 adjusted to pH 10.0 with NH4OH, estimated
  Total degradation, 24-hour Exposure: >90%
[4]; pH 12, 0.01N NaOH, estimated
  Total degradation, 24-hour Exposure: >90%
